Test system: reuptake of all three monoamines
Assay: monoamine reuptake inhibition profile (in words, with reference to Table 1)
Format: biochemical, rat
Details: sibutramine through its pharmacologically active metabolites 1 and 2

SMILES: CC(C)CC(N(C)C)C1(c2ccc(Cl)cc2)CCC1 (stereo not shown) [sibutramine, N,N-dimethyl-1-[1-(4-chlorophenyl)cyclobutyl]-3-methylbutylamine]
- monoamine reuptake inhibition / selectivity in words: inhibits the reuptake of all three monoamines
